In patent US20170367338A1, “COMPOSITIONS AND METHODS FOR IMPROVING AGRONOMIC CHARACTERISTICS OF PLANTS” (MONSANTO TECHNOLOGY LLC, priority 2014, published 2017):
Values after ≈ are worked out from the molar mass of the structure shown. Read-outs that look alike come from different tables or passages of the source. Marks after values point to notes of the source that are not given here.

How the values were obtained:
Meloidogyne incognita [1] = assay: M. incognita miniaturized greenhouse assay on cucumber seedlings; type: in vivo
Method: The test compound is dissolved in an acetone solution and added to water. A sprouted cucumber seedling is placed into a vial with dry sand and the water-chemical solution is added immediately. Twenty four hours later Meloidogyne incognita eggs are added to the vials and 10 to 12 days later the roots are evaluated for nematode galling.
Cucumber seeds are sprouted for 3 days in moist paper towels. Acceptable sprouts should be 3 to 4 cm long with several lateral roots just emerging. Stock solutions of chemistry are prepared in a mixture of acetone and Triton X100 (412 mg in 500 mL) to a final concentration of 5 mg/mL. The chemical stock solution is then added to 10 mL deionized water plus 0.015% Triton X100 and mixed thoroughly. This is enough to test each condition in triplicate. Ten mL dry sand is added to each vial. At this time the solubility of the chemistry is visually determined and recorded as either ppt (large precipitates) or cloudy (fine precipitates). Seedlings are planted by tilting the vial and laying the seedling in the correct orientation so that the cotyledons are just above the sand and then tilting back to cover the radicles with sand. 3.3 ml water/chemical mix is added to each vial and the vials placed in racks under fluorescent light banks. The vials are inoculated two days after planting by adding 500 vermiform M. incognita eggs to each vial in 50 uL of deionized or spring water. The vials are then kept under the fluorescent lamps at ambient room temperature and watered as needed with 1mL deionized water, usually twice during duration of test. Harvest of the cucumber plants is done 10 to 12 days after inoculation by washing sand off the roots. A root gall rating and visual phytotoxicity rating is assigned using the following scales: Gall rating scale (Gall: % root mass galled): 0=0-5%; 1=6-20%; 2=21-50%; and 3=51-100%. The average of the triplicate gall rating is then calculated: green=0.00-0.33 (no galls); yellow=0.67-1.33 (mild galling); orange=1.67-2.33 (moderate galling); red=2.67-3.00 (severe galling). Visual phytotoxicity scale is also assigned (Vis. tox; visual reduction in root mass compared to the control): rs1=mild stunting; rs2=moderate stunting; rs3=severe stunting.

Meloidogyne incognita [2] = assay: Fall nematicidal field test on squash; settings: for RG28 % root galls at 28 days after treatment / RG43 % root galls at 43 days after treatment / RW28 root weight at 28 days after treatment / RW43 root weight at 43 days after treatment / TW28 top weight at 28 days after treatment: squash
Description: The soil was a native prairie/pasture covering silty clay loam soil. […] Total volume of each hole was about 1.2 cubic feet. […] Holes were filled and then re-filled 5 days later after settling. […] Organic matter was 0.2% and pH was 6.8.
Treatments were arranged in a block design with the blocks laid out perpendicular to the primary slope and parallel to secondary slope. There are 7 inoculated controls and 5 non-inoculated controls and the distributions of disease severity appeared independent of location.
The resultant mix is the same as used in the standard greenhouse assays (10% acetone, 0.05% X100). The oxamyl treatments were prepared from Vydate 2L formulated the same way. The 500 ml was placed in a watering can and the entire volume was evenly sprinkled over the surface of the plot. No runoff occurred and pooling, if any, was short lived. The final drench volume was 0.58 ml/cm^2, compared to 0.2 ml/cm^2 used in our greenhouse, however the microplots are much deeper so the drench volume applied per soil volume treated is roughly the same.
Meloidogyne incognita eggs were harvested over a two week period and stored at approximately 5° C. until needed. A stock of 5.6 million vermiform eggs was adjusted to 9000/m1 in 620 ml. One day after treatment, two holes were made in each plot about 7 cm apart and equidistant from the squash plants. Five ml of egg suspension was pipetted into each hole, which was then sealed and the plot lightly watered. A total of 90,000 vermiform eggs were added to each plot.
The first root evaluation was at 28 DAT. The tops were cut off and weighed immediately in the field, and the roots were carefully dug out so as not to disturb the remaining plant.

Meloidogyne incognita [3] = assay: Summer field evaluation of pre-plant incorporated compounds on squash; type: in vivo
Method: Test plots of 33 cm diameter holes were bored 41 cm deep into clay soil and filled with a mixture of 80% sand and 20% silt loam soil. Technical compound for each treatment was dissolved in 50 ml acetone containing 250 ul of Triton X-100 surfactant. This solution was added to 450 ml water and poured onto 95 liters of sand/soil mixture in a rotating drum mixer. While continuing to rotate the mixing drum 66 grams of chopped, galled, tomato roots was added and thoroughly distributed. The treated soil was sufficient to fill the top 15 cm of each of the 6 replicate plots, thus simulating a PPI treatment. The plots were then watered lightly and a mixture of M. incognita eggs and larvae were injected 5 cm deep at 5 points within the plot (100k eggs/larvae in 10m1 per plot). Three-week old squash (cv. Liberator III) with 1 fully expanded true leaf was planted 4 days after soil treatment, one per plot.

[4] = tested on: Heterodera glycines (SCN); assay: Seed treatment test of soybean cyst nematode on soybean; type: in vivo; settings: Heterodera glycines, 672 h, read-out: percent cyst reduction relative to control blank treatment
Method: For a given concentration the chemical is dissolved in 500 ul of acetone and one gram of cucumber seed (RKN test) or soybean seed (SCN test) is added (e.g., 20 mg active ingredient in 500 ul acetone plus 1 gram of seed). The seed solutions are agitated until all seeds were thoroughly covered with the chemical solution. The acetone is then allowed to evaporate by air drying the seeds. The seeds are planted in 2-inch pots containing sandy soil and then the pots are inoculated with 1000 Meloidogyne incognita (RKN) or 1000 Heterodera glycines (SCN) eggs per pot three days after planting. Plants are rated for galling 14 days after egg inoculation for RKN or 28 days after egg inoculation for SCN.

[5] = tested on: soybean cyst nematode (SCN); assay: SCN greenhouse sand assay on soybean plants; type: in vivo; settings: Glycine max, 672 h, read-out: percent control (cyst number reduction) relative to the control blank treatment; for pest or weed control at 2000 g/ha: 2 kg/ha
Description: Soybeans seeds are planted in 100% sand in two inch square plastic pots. Chemical treatment is done when the soybeans show the first trifoliate beginning to emerge about 10 to 12 days after planting. At least four hours after chemical application the nematode soybean cyst nematode (SCN) eggs are applied and 28 days after the egg inoculation the test is harvested.
One milligram of chemistry per four pots is equal to one kilogram per hectare of chemical. A standard test uses four replications. For rates above 2 kg/ha, the desired amount of chemical is weighed into a 30 ml vial (example: 8 kg/ha rate =8 mg chemical in 30 ml vial). The chemical is dissolved in 2 ml of appropriate solvent, generally acetone. For rates below 2 kg/ha, 2 milligrams of chemistry is weighed into the vial and dissolved in 2 ml of the solvent. The appropriate amount of chemical concentrate is then pipetted into a separate 30 ml vial and solvent is added to bring the volume to 2 ml (example 0.5 kg/ha=0.5 ml of concentrate+1.5 ml solvent). Each dissolved concentrate is then brought to a total of 20 milliliters using 0.05% Triton X 100 surfactant solution.
Pots to be treated are moist but not saturated. To each of four pots, five milliliters of the appropriate chemical solution is pipetted to the media surface making sure to avoid contact with the base of the plant. Immediately following chemical application, using a mist nozzle, the pot surface is wetted sufficiently to saturate the pot watering in the chemistry. The chemical application is done in the morning.
Nematode eggs, either SCN or RKN, are added to distilled water to create a concentration of 1000 vermiform eggs […]. At least four hours after chemical treatment the eggs are applied to the treated pots plus non-treated check plants. A small hole about 1 cm deep is punched into the pot surface. One milliliter of the nematode egg slurry is pipetted into the hole. Immediately afterwards the hole is gently covered. Watering of the test plants is then restricted to only water as needed to prevent wilt for a period of 24 hours. After the 24 hour restricted watering, normal sub-irrigation watering is done for the duration of the test.

[6] = type: in vivo; settings: 500 mg/kg oral, three female mice, observed up to 14 days
Method: Acute oral toxicity testing was performed in mice in accordance with test method P203.UDP, as administered by Eurofins/Product Safety Laboratories (Dayton, New Jersey). CD-1/Swiss derived albino mice were obtained and group housed in suspended solid bottom caging. The mice were fed rodent chow and filtered tap water was supplied ad libitum. Following acclimation to the laboratory setting, a group of animals was fasted overnight by removing food from the cages. After the fasting period, three female mice were selected based on vitality and initial body weights. The individual compound doses were calculated from these body weights.
The test substance was prepared as a 1% (50 mg/kg) or 5% (500 mg/kg) weight to weight (w/w) mixture in a 0.5% w/w solution of carboxymethylcellulose (CMC) in distilled water. A tissue homogenizer was used to create a homogeneous mixture. A dose of 50 or 500 mg/kg was administered to three healthy mice per dose level by oral intubation using a ball-tipped gavage needle attached to a syringe. After administration, the animals were returned to their cages, and feed was replaced immediately after dosing.
Body weights were recorded prior to initiation and on Days 7 and 14 or a soon as possible after death.

C. elegans = assay: Three day C. elegans well assay; type: in vivo; settings: Caenorhabditis elegans, L1 larvae
Method: Various compounds were tested for nematicidal activity against C. elegans using contact assays in wells. The assays were performed as described below. The test compounds were solubilized in DMSO at 10 mg/ml to create 100× stock solutions. A dilution series was created by diluting the stock solution with DMSO. For each well assay 4 ul of the appropriate dilution is added to a well of a test plate. A 400 ul aliquot of bacterial stock (in M9 buffer with ampicillin and nystatin) are added to each well of the test plate. Worms are added and the test plate placed on a rotary shaker and held at 20° C. Worms are examined and scored at 4 hrs, 24 hrs, 48 hrs and 72 hours. L1 worms and L4 worms were used in the assay. L1 worms are prepared by plating eggs on a plate without a bacterial feeding layer. The eggs hatch and arrest at the L1 stage. This L1 stage population is then used to create a stock for the experiments. To create an L4 stage stock a small number of worms are taken from an overgrown and starved plate of worms and seeded on a plate with a bacterial feeder layer. A 25 ul aliquot of worms is added to each well in the assay.

CNC(=O)O/N=C(\SC)C(=O)N(C)C [Oxamyl]
gall ratings (Meloidogyne incognita [1]; 1 ppm (oxamyl), Table 1A): 0.67
1 ppm gall ratings (Meloidogyne incognita [1]; Table 1B test a): 0.67
1 ppm gall ratings (Meloidogyne incognita [1]; Table 1B test b): 1 (1=6-20%)
1 ppm gall ratings (Meloidogyne incognita [1]; Table 1B test c): 1.33
1 ppm gall ratings (Meloidogyne incognita [1]; Table 1B test d): 1.33
1 ppm gall ratings (Meloidogyne incognita [1]; Table 1B test e): 1 (1=6-20%)
1 ppm gall rating (Meloidogyne incognita [1]; Table 1C test a): 1.33
1 ppm gall rating (Meloidogyne incognita [1]; Table 1C test b): 1 (1=6-20%)
1 ppm gall rating (Meloidogyne incognita [1]; Table 1C test c): 0.67^c
1 ppm gall rating (Meloidogyne incognita [1]; Table 1D test a): 1.33
1 ppm gall rating (Meloidogyne incognita [1]; Table 1D test b): 1 (1=6-20%)
RG28 % root galls at 28 days after treatment (Meloidogyne incognita [2]; 2 kg ai/ha): 45.0%
RG43 % root galls at 43 days after treatment (Meloidogyne incognita [2]; 2 kg ai/ha): 42.3%
RW28 root weight at 28 days after treatment (Meloidogyne incognita [2]; 2 kg ai/ha): 5.6
RW43 root weight at 43 days after treatment (Meloidogyne incognita [2]; 2 kg ai/ha): 14.3
TW28 top weight at 28 days after treatment (Meloidogyne incognita [2]; 2 kg ai/ha): 136.8
RG28 % root galls at 28 days after treatment (Meloidogyne incognita [2]; 5 kg ai/ha): 10.5%
RG43 % root galls at 43 days after treatment (Meloidogyne incognita [2]; 5 kg ai/ha): 17.3%
RW28 root weight at 28 days after treatment (Meloidogyne incognita [2]; 5 kg ai/ha): 6.6
RW43 root weight at 43 days after treatment (Meloidogyne incognita [2]; 5 kg ai/ha): 12.7
TW28 top weight at 28 days after treatment (Meloidogyne incognita [2]; 5 kg ai/ha): 232.1
0-3 vigor 16DAP (Meloidogyne incognita [3]; 4 kg/ha PPI, squash): 2.7
0-3 vigor 21DAP (Meloidogyne incognita [3]; 4 kg/ha PPI, squash): 2.5
feeder root (3 = ave) 31DAP (Meloidogyne incognita [3]; 4 kg/ha PPI, squash): 3.0
gall % 31DAP (Meloidogyne incognita [3]; 4 kg/ha PPI, squash): 85%
root wgt (g) 31DAP (Meloidogyne incognita [3]; 4 kg/ha PPI, squash): 37.0 g
top wgt (lbs) 31DAP (Meloidogyne incognita [3]; 4 kg/ha PPI, squash): 1.16 lbs
total fruit (lbs) (Meloidogyne incognita [3]; 4 kg/ha PPI, squash): 1.09 lbs
pest or weed control at 0.375 mg/g [4]: -4%
pest or weed control at 1.5 mg/g [4]: 71%

c1ccc(-c2cnc(-c3cccs3)o2)cc1 [compound 4417]
RW28 root weight at 28 days after treatment (Meloidogyne incognita [2]; 2 kg ai/ha): 5.3
RW43 root weight at 43 days after treatment (Meloidogyne incognita [2]; 2 kg ai/ha): 16.4
TW28 top weight at 28 days after treatment (Meloidogyne incognita [2]; 2 kg ai/ha): 97.5
Leaf diameter of the first true leaves (Meloidogyne incognita [2]; 2 kg/ha, five days after treatment (5 DAT)): slight reduction
phytotoxicity (Meloidogyne incognita [2]; 2 kg/ha, two days after treatment, squash seedlings): slight phytotoxicity
pest or weed control at 2000 g/ha ([5]; test b): 94%
acute oral toxicity: mortality and signs [6]: One animal died within four days

Clc1ccc(-c2nnc(-c3cccs3)o2)cc1 [compound 4559]
RW28 root weight at 28 days after treatment (Meloidogyne incognita [2]; 2 kg ai/ha): 6.4
RW43 root weight at 43 days after treatment (Meloidogyne incognita [2]; 2 kg ai/ha): 13.2
TW28 top weight at 28 days after treatment (Meloidogyne incognita [2]; 2 kg ai/ha): 150.8
control of root galling compared with oxamyl at an equivalent rate (Meloidogyne incognita [2]; 43 day time point): significantly better than oxamyl
pest or weed control at 2000 g/ha ([5]; test a): 98%

Fc1ccc(-c2cnc(-c3cccs3)o2)cc1 [compound 4775]
pest or weed control at 2000 g/ha ([5]; test b): 95%
acute oral toxicity: mortality and signs [6]: all animals survived

FC(F)(F)c1cccc(-c2noc(-c3ccco3)n2)c1 [compound 5181]
pest or weed control at 2000 g/ha ([5]; test a): 100%

c1cncc(-c2noc(-c3ccco3)n2)c1 [compound 5292]
pest or weed control at 2000 g/ha ([5]; test a): 92%

Cc1occc1-c1nc(-c2ccc(Cl)cc2)no1 [compound 5867]
1 ppm gall rating (Meloidogyne incognita [1]; Table 1C test a): 1 ^a (1=6-20%)

COc1ccc(-c2noc(-c3ccoc3C)n2)cc1 [compound 5869]
1 ppm gall rating (Meloidogyne incognita [1]; Table 1C test a): 1 ^a (1=6-20%)

Cc1cc(Br)ccc1-c1nsc(-c2ccco2)n1 [compound 5939]
EC50 (C. elegans; 24 h, one day of exposure, read-out: EC50 L1 1D): 0.4 µg/mL (≈ 1.25 µM)
EC50 (C. elegans; 48 h, two days of exposure, read-out: EC50 L1 2D): 0.4 µg/mL (≈ 1.25 µM)
EC50 (C. elegans; 72 h, three days of exposure, read-out: EC50 L1 3D): 0.4 µg/mL (≈ 1.25 µM)
pest or weed control at 100 g/ha ([5]; 0.1 kg/ha, test d): 64%
pest or weed control at 250 g/ha ([5]; 0.25 kg/ha, test d): 88%

Clc1ccc(-c2nsc(-c3ccco3)n2)c(Cl)c1 [compound 5960]
control of M. incognita by PPI application (Meloidogyne incognita [3]; 4 kg/ha): significant control
acute oral toxicity: mortality and signs [6]: all animals survived
